Type in all cases: functional
One assay deals with Pseudomonas aeruginosa. Put plainly: Antibacterial activity against Pseudomonas aeruginosa ATCC 27853 strain assessed as bacterial growth inhibition incubated for 24 hrs.
The next assay concerns Enterococcus faecalis. Put plainly: Antibacterial activity against Enterococcus faecalis ATCC 29212 strain assessed as bacterial growth inhibition incubated for 24 hrs.
In assay [1] the test system is Staphylococcus aureus. The experiment in a line: Antibacterial activity against Staphylococcus aureus ATCC 6535 strain assessed as bacterial growth inhibition incubated for 24 hrs.
In another assay the test system is Bacillus cereus. The experiment in a line: Antibacterial activity against Bacillus cereus ATCC 11778 strain assessed as bacterial growth inhibition.
In assay [2] the test system is Staphylococcus aureus. Put plainly: Antibacterial activity against Staphylococcus aureus ATCC 6538P strain assessed as bacterial growth inhibition.
In the next assay the test system is Candida albicans. The experiment in a line: Antifungal activity against Candida albicans NRRL Y-477 strain assessed as […] growth inhibition.
Another assay relates to Aspergillus fumigatus. The experiment in a line: Antifungal activity against Aspergillus fumigatus ATCC 13073 strain assessed as […] growth inhibition.
The next assay has as its system Proteus vulgaris. Put plainly: Antibacterial activity against Proteus vulgaris ATCC 7829 strain assessed as bacterial growth inhibition.
The next assay relates to Escherichia coli. The experiment in a line: Antibacterial activity against Escherichia coli ATCC 853 strain assessed as bacterial growth inhibition.

In brackets after ≈: the same amount, converted by molar mass.

By MIC is commonly meant the lowest concentration that inhibits growth of the organism. For `CCOP(=O)(CCCCn1cc(Cn2cnc3ccccc3c2=O)nn1)OCC`, the MIC with Pseudomonas aeruginosa was determined as 0.625 µg/mL (≈ 1.49 µM).

In the case of `CCOP(=O)(CCn1cc(Cn2cnc3ccccc3c2=O)nn1)OCC`, the MIC in the assay on Enterococcus faecalis is 0.625 µg/mL (≈ 1.6 µM).

For the compound `CCOP(=O)(CCCn1cc(Cn2cnc3ccccc3c2=O)nn1)OCC`, the MIC in the assay on Staphylococcus aureus [1] is 0.625 µg/mL (≈ 1.54 µM).

For the compound `COc1ccccc1-n1cc(COc2ccc(-c3nc(-c4ccccc4)c(-c4ccccc4)n3Cc3cn(-c4ccccc4OC)nn3)cc2)nn1`, the MIC with Bacillus cereus, in the assay on Staphylococcus aureus [2], in the assay with Candida albicans, in the assay with Aspergillus fumigatus, in the assay on Proteus vulgaris and in the assay on Escherichia coli was 13.8 µM (≈ 9.46 µg/mL) each time.

Source of the values: ChEMBL document CHEMBL5233261, “Recent accomplishments on the synthetic/biological facets of pharmacologically active 1H-1,2,3-triazoles” (Eur J Med Chem, 2021).
